In BindingDB's records for doi:10.1021/jm00397a017 (Beijing Medical University, 1988):

target: T1, Dihydrofolate reductase (Escherichia coli (strain K12), UniProt P0ABQ4); experiment: ChEBML_54731
T1 sequence (P0ABQ4 whole entry): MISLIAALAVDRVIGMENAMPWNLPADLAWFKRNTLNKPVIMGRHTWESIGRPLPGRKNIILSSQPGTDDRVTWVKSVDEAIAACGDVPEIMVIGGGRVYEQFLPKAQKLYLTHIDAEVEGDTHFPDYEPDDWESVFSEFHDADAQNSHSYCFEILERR
Description: Apparent inhibitory (log 1/Ki) activity against Escherichia coli dihydrofolate reductase

SMILES | Ki [nM]
Nc1ncc(Cc2cc(OCc3ccccc3)cc(OCc3ccccc3)c2)c(N)n1 | 1.7
COCCOc1cc(Cc2cnc(N)nc2N)ccc1OC | 1.8
CS(=O)(=O)Oc1ccc(Cc2cnc(N)nc2N)cc1 | 7.1
CCCOc1cc(Cc2cnc(N)nc2N)cc(OCCC)c1 | 1.6
Cc1cc(C)cc(Cc2cnc(N)nc2N)c1 | 8.9
CCCOc1cc(Cc2cnc(N)nc2N)cc(OCC)c1 | 3.2
Nc1ncc(Cc2ccc(OCc3ccccc3)cc2)c(N)n1 [5-(4-(benzyloxy)benzyl)pyrimidine-2,4-diamine] | 2

Compounds with a lower Ki, results first:

Ki [nM] | SMILES
1.1 | CCCOc1cc(Cc2cnc(N)nc2N)cc(Br)c1OC
1.1 | CCCCOc1cc(Cc2cnc(N)nc2N)cc(Br)c1OC
1.1 | COc1ccc(Cc2cnc(N)nc2N)cc1OS(C)(=O)=O
0.977 | CCCCOc1ccc(Cc2cnc(N)nc2N)cc1OC
0.891 | COc1cc(Cc2cnc(N)nc2N)ccc1O
0.776 | CCOc1cc(Cc2cnc(N)nc2N)cc(OCC)c1
0.562 | COCCOc1ccc(Cc2cnc(N)nc2N)cc1OC
0.372 | COc1cc(Cc2cnc(N)nc2N)ccc1OCc1ccccc1 [5-(4-(benzyloxy)-3-methoxybenzyl)pyrimidine-2,4-diamine]
0.0977 | COc1ccc(Cc2cnc(N)nc2N)cc1OCc1ccccc1 [5-(3-Benzyloxy-4-methoxy-benzyl)-pyrimidine-2,4-diamine]
